For orientation: IC50 means the concentration at which inhibition is half-maximal.

In EP4782453A1 (Beyang Therapeutics Co., Ltd., priority 2023, dated 2025) one finds IC50 data, which are given here for 23 compounds.

Molecules are shown by their SMILES.

The target of the first assay is T1, Menin-MLL (Homo sapiens, UniProt O00255).
T1 construct: His-Menin (M1-L615 end); purchased BIORTUS BP9210
T1 sequence (O00255 1-615 isoform O00255-1): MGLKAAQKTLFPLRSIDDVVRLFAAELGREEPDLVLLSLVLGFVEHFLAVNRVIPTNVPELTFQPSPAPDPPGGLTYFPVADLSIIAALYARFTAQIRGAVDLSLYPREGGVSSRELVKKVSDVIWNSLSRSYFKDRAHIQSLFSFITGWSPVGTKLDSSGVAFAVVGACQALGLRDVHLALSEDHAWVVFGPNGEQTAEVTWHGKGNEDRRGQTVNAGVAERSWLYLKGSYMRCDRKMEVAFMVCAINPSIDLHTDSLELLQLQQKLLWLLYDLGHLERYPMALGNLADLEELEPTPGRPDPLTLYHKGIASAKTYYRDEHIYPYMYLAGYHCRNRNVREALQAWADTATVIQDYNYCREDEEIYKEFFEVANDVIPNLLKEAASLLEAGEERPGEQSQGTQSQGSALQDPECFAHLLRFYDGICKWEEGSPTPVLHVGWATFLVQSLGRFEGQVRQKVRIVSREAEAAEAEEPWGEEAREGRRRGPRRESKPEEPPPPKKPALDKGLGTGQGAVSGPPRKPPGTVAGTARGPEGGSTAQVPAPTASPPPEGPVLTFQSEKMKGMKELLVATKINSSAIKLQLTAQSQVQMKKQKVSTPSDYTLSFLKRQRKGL
The assay can be described thus: Inhibitory activity against Menin-MLL binding (fluorescence polarization). Particulars: Menin-MLL IC50, fluorescence polarization; 150 nM His-Menin, 15 nM FITC-MLL; 25°C for 60 min. As for the experimental part:
• His-Menin (M1-L615 end), purchased from BIORTUS, Catalog Number: BP9210; and • FITC-MLL4-43, purchased from GenScript, Catalog Number: C491HFF190-3/PE1324.
In a 10 µL reaction solution (20 mM HEPES, pH 7.5, 50 mM NaCl, 1 mM DTT, 0.01% BSA) containing any compound from the examples, 150 nM His-Menin was added to a 384-well plate (Corning, Model: 4514). Each concentration was set up in duplicate wells. After centrifugation at 1000 RPM for 1 min, the plate was incubated at 25°C for 15 min. Then, 15 nM […] (20 mM HEPES, pH 7.5, 50 mM NaCl, 1 mM DTT, 0.01% BSA) was added to a 384-well plate. After centrifugation at 1000 RPM for 1 min, the reaction proceeded at 25°C for 60 min. Changes in fluorescence polarization were measured using a plate reader (PerkinElmer, Envision 2104). Based on the measured signals, the binding inhibition rate of the compound at each concentration was calculated, and the IC50 (half-maximal inhibitory concentration) of the compound was determined using statistical analysis software GraphPad Prism (GraphPad Software, Inc.) by means of a nonlinear fitting formula: 4-Parameter Logistic Model or Sigmoidal Dose-Response Model: Y = Bottom + (Top−Bottom)/(1 + 10^((LogIC50−X) × Hill Slope)), [formula] in which X indicates the logarithm of compound concentration, Y indicates a fluorescence polarization mP value, and Top and Bottom indicate the maximum and minimum readouts of fluorescence polarization mP values. Table 1: Inhibitory Activity of Compounds Against Menin-MLL Binding
(In general: Polarisation of emitted light reports the rotation of a fluorescent probe.)
With `CCN(C(=O)c1cc(F)ccc1-c1cc(C2CCN(C[C@H]3CC[C@H](NS(=O)(=O)CC)CC3)C2)nc2c1cnn2C)C(C)C` (mixture of isomers) [Example 11, N-ethyl-5-fluoro-2-[1-methyl-6-(1-{[(1r,4r)-4-ethanesulfonamidocyclohexyl]methyl}pyrrolidin-3-yl)-1H-pyrazolo[3,4-b]pyridin-4-yl]-N-(isopropyl)benzamide], the IC50 was 155 nM. Take `CCN(C(=O)c1cc(F)ccc1-c1cc(C2CN(C(=O)[C@@H](NC)C3CCCC3)C2)cn2c(C)nc(F)c12)C(C)C` [Example 317]: the IC50 amounted to 92 nM. Same read-out and setting: for `CCN(C(=O)c1cc(F)ccc1-c1cc(C2CN(C(=O)[C@H]3NC[C@@H]4CCC[C@@H]43)C2)cn2c(C)nc(F)c12)C(C)C` [Example 274] the value was 19.5 nM. As to `CCN(C(=O)c1cc(F)ccc1-c1cc(C2CN([C@H](CCCN3CCN4C(=O)OCC4(CO)C3)C(C)C)C2)cn2c(C)ncc12)C(C)C` (stereo partly drawn) [Example 484, 2-(6-{1-[(3R)-6-[8^a-(hydroxymethyl)-3-oxo-hexahydro-1H-[1,3]oxazolo[3,4-a]pyrazin-7-yl]-2-methylhexan-3-yl]azacyclobutan-3-yl}-3-methylimidazo[1,5-a]pyridin-8-yl)-N-ethyl-5-fluoro-N-(isopropyl)benzamide], the IC50 was 4.2 nM.

Consider `CCN(C(=O)c1cc(F)ccc1-c1cc(N2CCN(C(=O)C3NC4CCC3CC4)CC2)cn2c(C)nc(Cl)c12)C(C)C` [Example 93, 2-(1-chloro-3-methyl-6-{4-[(1R,3S,4S)-2-azabicyclo[2.2.2]octan-3-carbonyl]piperazin-1-yl}imidazo[1,5-a]pyridin-8-yl)-N-ethyl-5-fluoro-N-(isopropyl)benzamide], for which the IC50 worked out at 21 nM.

Staying with this assay, now noted: fluorescence polarization; 150 nM His-Menin, 15 nM FITC-MLL; 25°C for 60 min; read-out: Menin-MLL IC50.
For the compound `CCN(C(=O)c1cc(F)ccc1-c1cc(C2CCN(CC3CCN(c4nnc(C)o4)CC3)C2)cn2cncc12)C(C)C` (centres unmarked) [Example 46], the IC50 was determined as 62.5 nM. For `CC(C)N(CC(F)F)C(=O)c1cc(F)ccc1-c1cc(C2CCN(CCN3CCC(NC(=O)OC(C)(C)C)CC3)C2)cc2c1cnn2C` (racemic) [Example 166, N-(1-{2-[3-(4-{2-[(2,2-difluoroethyl)(isopropyl)aminoformyl]-4-fluorophenyl}-1-methyl-1H-indazol-6-yl)pyrrolidin-1-yl]ethyl}piperidin-4-yl)tert-butyl carbamate], the IC50 was 271 nM. On to `COC[C@H]1CN(CCC[C@@H](C(C)C)N2CC(c3cc(-c4ccc(F)cc4C(=O)N(C(C)C)C(C)C)c4cnc(C)n4c3)C2)CCN1` [Example 504-1, 5-fluoro-2-(6-{1-[(3S)-6-[(3R)-3-(methoxymethyl)piperazin-1-yl]-2-methylhexan-3-yl]azacyclobutan-3-yl}-3-methylimidazo[1,5-a]pyridin-8-yl)-N,N-di(isopropyl)benzamide], for which the IC50 turned out to be 17 nM. Still for that read-out and setting: the figure for `CCN(C(=O)c1cc(F)ccc1-c1cc(C2CN(C(CCCN3C[C@H]4C[C@@H]3CO4)C(C)C)C2)cc2c(C)ncn12)C(C)C` (stereo partly drawn) [Example 465, N-ethyl-5-fluoro-2-[1-methyl-7-(1-{2-methyl-6-[(1R,4R)-2-oxa-5-azabicyclo[2.2.1]heptan-5-yl]hexan-3-yl}azacyclobutan-3-yl)imidazo[1,5-a]pyridin-5-yl]-N-(isopropyl)benzamide] is 3.1 nM; for `Cc1nc(F)c2c(-c3ccc(F)cc3C(=O)N3CCOC[C@H]3C)cc(C3CN(C(C)C4CCOCC4)C3)cn12` (stereo partly drawn) [Example 238, (3R)-4-[5-fluoro-2-(1-fluoro-3-methyl-6-{1-[1-(oxacyclohexan-4-yl)ethyl]azacyclobutan-3-yl}imidazo[1,5-a]pyridin-8-yl)benzoyl]-3-methylmorpholine] it is 10 nM; for `CC(=O)N1CCN(CCC[C@H](C(C)C)N2CC(c3cc(-c4ccc(F)cc4C(=O)N4CCOC[C@H]4C)c4c(F)nc(C)n4c3)C2)CC1(C)C` [Example 339] it is 13 nM. On the same count and under the same terms, the figure for `Cc1nc(F)c2c(-c3ccc(F)cc3C(=O)N3CCOC[C@H]3C)cc(C3CN(CC4CCN(C(=O)C5(C#N)CC5)CC4)C3)cn12` [Example 254] is 48 nM.

Turning to `CC(C)N(CC(F)F)C(=O)c1cc(F)ccc1-c1cc([C@H]2CCN(CCN3CCC(NC(=O)OC(C)(C)C)CC3)C2)cc2c1cnn2C` [Example 166-2, N-(1-{2-[(3R)-3-(4-{2-[(2,2-difluoroethyl)(isopropyl)aminoformyl]-4-fluorophenyl}-1-methyl-1H-indazol-6-yl)pyrrolidin-1-yl]ethyl}piperidin-4-yl)tert-butyl carbamate], the IC50 is 248 nM. Same read-out and setting: for `CCN(C(=O)c1cc(F)ccc1-c1cc(C2CN([C@H](C)C3CCN(C(C)=O)CC3)C2)cn2c(C)ncc12)C(C)C` [Example 281-2] the value was 79 nM; for `CCN(C(=O)c1cc(F)ccc1-c1cc(C2CN(C(COC)C(C)C)C2)cn2c(C)ncc12)C(C)C` (centres unmarked) [Example 414, N-ethyl-5-fluoro-2-{6-[1-(1-methoxy-3-methylbutan-2-yl)azacyclobutan-3-yl]-3-methylimidazo[1,5-a]pyridin-8-yl}-N-(isopropyl)benzamide], 11.8 nM. For the compound `CC(=O)N1CCC(CN2CC(Cc3cc(-c4ccc(F)cc4C(=O)N4[C@H](C)COC[C@H]4C)c4c(F)nc(C)n4c3)C2)CC1` [Example 228], the IC50 is 130 nM.

For `Cc1nc(F)c2c(-c3ccc(F)cc3C(=O)N3CCOC[C@H]3C)cc(C3CN([C@H](CN4CCNCC4)C(C)C)C3)cn12` [Example 367-2, (3R)-4-[5-fluoro-2-(1-fluoro-3-methyl-6-{1-[(2S)-3-methyl-1-(piperazin-1-yl)butan-2-yl]azacyclobutan-3-yl}imidazo[1,5-a]pyridin-8-yl)benzoyl]-3-methylmorpholine], the IC50 was 4 nM. Take `CCN(C(=O)c1cc(F)ccc1-c1cc(C2CN([C@H](CCCN3CCN(CCC#N)C(=O)C3)C(C)C)C2)cn2c(C)ncc12)C(C)C` [Example 493]: the IC50 worked out at 5 nM. Regarding `CCN(C(=O)c1cc(F)ccc1-c1cc(N2CCN(C(=O)[C@@H]3CCCN3)CC2)c(Cl)n2c(C)ncc12)C(C)C` [Example 115, 2-(5-chloro-3-methyl-6-{4-[(2S)-pyrrolidin-2-carbonyl]piperazin-1-yl}imidazo[1,5-a]pyridin-8-yl)-N-ethyl-5-fluoro-N-(isopropyl)benzamide], the IC50 is 152 nM. For `CCN(C(=O)c1cc(F)ccc1-c1cc(N2CCN(C(=O)C3NCCc4ccccc43)CC2)cn2c(C)nc(Cl)c12)C(C)C` (centres unmarked) [Example 122], the IC50 came to 217 nM. Take `Cc1nc(F)c2c(-c3ccc(F)cc3C(=O)N3CCOC[C@H]3C)cc(C3CN([C@H](CN4CCN(C(=O)OC(C)(C)C)CC4)C(C)C)C3)cn12` [Example 366-2, 4-[(2S)-2-[3-(1-fluoro-8-{4-fluoro-2-[(3R)-3-methylmorpholin-4-carbonyl]phenyl}-3-methylimidazo[1,5-a]pyridin-6-yl)azacyclobutan-1-yl]-3-methylbutyl]piperazin-1-tert-butyl carboxylate]: the half-maximal inhibitory concentration (IC50) came out at 38.5 nM. Regarding `CCN(C(=O)c1cc(F)ccc1-c1cc(C2CCN(C[C@H]3CC[C@H](NC(C)=O)CC3)C2)cn2cncc12)C(C)C` (some centres unmarked) [Example 45], the IC50 worked out at 95.5 nM. Turning to `Cc1cncc2c(-c3ccc(F)cc3C(=O)N(C)C(C)C)cc(CC3CN([C@@H](CCCN4CCN(CCO)CC4)C(C)C)C3)n12` [Example 477-2, 5-fluoro-2-[6-({1-[(3S)-6-[4-(2-hydroxylethyl)piperazin-1-yl]-2-methylhexan-3-yl]azacyclobutan-3-yl}methyl)-4-methylpyrrolo[1,2-a]pyrazin-8-yl]-N-methyl-N-(isopropyl)benzamide], the half-maximal inhibitory concentration (IC50) was determined as 27 nM.
